Experimental findings from patent US6921821B2, “Antagonists of melanin concentrating hormone receptor” (Abbott Laboratories, priority 2002, dated 2005) are described below.

Where a name gives a salt, the structure may show the parent alone.

MCH-R1, sequence (Q8JZL2 whole entry): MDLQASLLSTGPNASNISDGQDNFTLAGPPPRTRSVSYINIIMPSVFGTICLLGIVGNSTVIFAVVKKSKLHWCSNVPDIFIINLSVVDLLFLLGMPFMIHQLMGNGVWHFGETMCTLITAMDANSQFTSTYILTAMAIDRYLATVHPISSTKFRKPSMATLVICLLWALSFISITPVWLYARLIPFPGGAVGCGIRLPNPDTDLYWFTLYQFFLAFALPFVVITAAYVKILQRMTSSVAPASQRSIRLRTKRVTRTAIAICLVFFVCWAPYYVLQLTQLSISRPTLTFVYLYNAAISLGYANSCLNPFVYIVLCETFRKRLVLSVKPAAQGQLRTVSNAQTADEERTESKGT

The target of one test is T1, murine MCHR (Mus musculus, UniProt Q8JZL2).
T1 construct: expressed in transfected cells; host or cells: HEK293
T1 sequence (Q8JZL2 whole entry): as above
The test can be described thus: Assay for release of intracellular calcium (FLIPR, Fluo-4), inhibition of MCH-induced Ca++ flux. It counts as cell-based. The conditions noted are these: test compound at a dose of 10 μM, HEK293 cells expressing the murine MCHR, read-out: inhibition of MCH (MCH induced Ca++ flux / fluorescence). The essentials:
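HEK293 cells expressing murine MCHR were loaded with Fluo-4AM (2.5 μM) and given compound (40 μM stock in 4% DMSO), with 3 min monitoring for agonism. They were then challenged with mouse MCH (12 nM as added) and FLIPR fluorescence followed 3 min more. % inhibition of MCH-induced Ca++ flux was calculated against baseline and no-compound signals.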
(Calcium assays in cells follow changes in intracellular calcium, usually with a dye or a luminescent sensor.)
With `CCOc1cccc(CN2CCC(Nc3cc(=O)oc4ccc(OC)cc34)CC2)c1` [II-97, 4-[1-(3-Ethoxy-benzyl)-piperidin-4-ylamino]-6-methoxy-chromen-2-one trifluoroacetate], the inhibition at 10 µM was not below 50%. Take `Cc1cc(C)c2oc(=O)cc(NC3CCN(Cc4ccc5c(c4)OCO5)CC3)c2c1` [II-98, 4-(1-Benzo[1,3]dioxol-5-ylmethyl-piperidin-4-ylamino)-6,8-dimethyl-chromen-2-one]: the inhibition at 10 µM was not below 50%.

`NC(=O)c1cccc(CN2CCC(Nc3cc(=O)oc4ccc(Cl)cc34)CC2)c1` [II-99, 3-[4-(6-Chloro-2-oxo-2H-chromen-4-ylamino)-piperidin-1-ylmethyl]-benzamide]: the inhibition at 10 µM is not below 50%. With `C=Cc1ccc2oc(=O)cc(NC3CCN(Cc4ccc5ocnc5c4)CC3)c2c1` [II-100, 4-(1-Benzooxazol-5-ylmethyl-piperidin-4-ylamino)-6-vinyl-chromen-2-one], the inhibition at 10 µM is not below 50%. Still for that read-out and setting: to `COc1ccc2oc(=O)cc(NC3CCN(Cc4cccc5sccc45)CC3)c2c1` [II-101, 4-{[1-(1-benzothien-4-ylmethyl)piperidin-4-yl]amino}-6-methoxy-2H-chromen-2-one] belongs not below 50%. `COc1ccc2oc(=O)cc(NC3CCN(Cc4ccccc4)CC3)c2c1` [II-102, 4-(1-Benzyl-piperidin-4-ylamino)-6-methoxy-chromen-2-one trifluoroacetate]: the inhibition at 10 µM was not below 50%. The same measure, in the same setting: to `CCc1ccc2oc(=O)cc(NC3CCN(Cc4ccc(C)c(C)c4)CC3)c2c1` [II-103, 4-{1-(3,4-Dimethyl-benzyl)-piperidin-4-ylamino}-6-ethyl-chromen-2-one] belongs not below 50%. With `COc1ccc2oc(=O)cc(NC3CCN(Cc4ccc(C)c(F)c4)CC3)c2c1` [II-105, 4-[1-(3-Fluoro-4-methyl-benzyl)-piperidin-4-ylamino]-6-methoxy-chromen-2-one trifluoroacetate], the inhibition at 10 µM is not below 50%. Still for that read-out and setting: to `COc1ccc2oc(=O)cc(NC3CCN(Cc4ccc5c(ccn5C)c4)CC3)c2c1` [II-111, 6-Methoxy-4-[N-methylindole-5-ylmethyl-piperidin-4-ylamino]chromen-2-one] belongs not below 50%. The same measure, in the same setting: as for `COc1ccc2oc(=O)cc(NC3CCN(Cc4ccc5ncccc5c4)CC3)c2c1` [II-112, 6-Methoxy-4-(1-quinolin-6-ylmethyl-piperidin-4-ylamino)-chromen-2-one], the figure is not below 50%; as for `CC(c1ccc(O)c(F)c1)N1CCC(Nc2cc(=O)oc3ccc(Cl)cc23)CC1` (stereo not shown) [II-113, 6-Chloro-4-{1-[1-(3-fluoro-4-hydroxy-phenyl)-ethyl]-piperidin-4-ylamino}-chromen-2-one], not below 50%. `N#Cc1ccc2oc(=O)cc(NC3CCN(Cc4ccc5occc5c4)CC3)c2c1` [II-114, 4-(1-Benzofuran-5-ylmethyl-piperidin-4-ylamino)-2-oxo-2H-chromene-6-carbonitrile]: the inhibition at 10 µM is not below 50%.

Turning to `COc1ccc2oc(=O)cc(NC3CCN(Cc4ccc(OCCCN5CCCCC5)c(Cl)c4)CC3)c2c1` [II-115, 4-{1-[3-Chloro-4-(3-piperidin-1-yl-propoxy)-benzyl]-piperidin-4-ylamino}-6-methoxy-chromen-2-one; Double TFA Salt], the inhibition at 10 µM is not below 50%. The same measure, in the same setting: to `O=c1cc(NC2CCN(Cc3ccc4c(c3)OCO4)CC2)c2cc(Cl)c(Cl)cc2o1` [II-117, (4-Benzo[1,3]dioxol-5-ylmethyl-piperidin-4-ylamino)-6,7-dichloro-chromen-2-one] belongs not below 50%; to `C[C@@H](c1ccc2ccccc2c1)N1CCC(Nc2cc(=O)oc3ccc(Cl)cc23)CC1` [II-120, (S)-6-Chloro-4-[1-(1-naphthalen-2-yl-ethyl)-piperdin-4-ylamino]-chromen-2-one], not below 50%. On the same count and under the same terms, to `O=c1cc(NC2CCN(Cc3ccc4c(c3)OCO4)CC2)c2cc(OC(F)F)ccc2o1` [II-125, 4-(1-Benzo[1,3]dioxol-5-ylmethyl-piperidin-4-ylamino)-6-difluoromethoxy-chromen-2-one] belongs not below 50%; to `COc1ccc2oc(=O)cc(NC3CCN(C/C=C/c4ccccc4)CC3)c2c1` [III-1, 6-Methoxy-4-[1-(3-phenyl-allyl)-piperidin-4-ylamino] chromen-2-one], not below 50%. As to `O=c1cc(NC2CCN(C/C=C/c3ccccc3Cl)CC2)c2cc(Cl)ccc2o1` [III-2, 6-Chloro-4-{1-[3-(2-chloro-phenyl)-allyl]-piperidin-4-ylamino}-chromen-2-one], the inhibition at 10 µM is not below 50%.

As for `O=c1cc(NC2CCN(C/C=C/c3ccccc3)CC2)c2cc(Cl)ccc2o1` [III-3, 6-Chloro-4-[1-(3-phenyl-allyl)-piperidin-4-ylamino]-chromen-2-one], the inhibition at 10 µM was not below 50%.

On to `O=c1cc(NC2CCN(C/C=C/c3ccccc3)CC2)c2cc(Br)ccc2o1` [III-5, 6-Bromo-4-[1-(3-phenyl-allyl)-piperidine-4-ylamino]-chromen-2-one], for which the inhibition at 10 µM is not below 50%.

Turning to `Cc1ccc2oc(=O)cc(NC3CCN(C/C=C/c4ccccc4)CC3)c2c1` [III-6, 6-Methyl-4-[1-(3-phenyl-allyl)-piperidin-4-ylamino]-chromen-2-one], the inhibition at 10 µM is not below 50%. Still for that read-out and setting: to `O=c1cc(NC2CCN(C/C=C/c3cccc(Cl)c3)CC2)c2ccccc2o1` [III-9, 4-{1-[3-(3-Chloro-phenyl)-allyl]-piperidin-4-ylamino}-chromen-2-one] belongs not below 50%; to `Cc1ccc2oc(=O)cc(NC3CCN(C/C=C/c4ccccc4[N+](=O)[O-])CC3)c2c1` [III-12, 6-Methyl-4-{1-[3-(2-nitro-phenyl)-allyl]-piperidin-4-ylamino}-chromen-2-one], not below 50%. The same measure, in the same setting: as for `O=c1cc(NC2CCN(C/C=C/c3ccccc3F)CC2)c2ccccc2o1` [III-14, 4-{1-[3-(2-Fluoro-phenyl)-allyl]-piperidin-4-ylamino}-chromen-2-one], the figure is not below 50%; as for `C/C(=C\c1ccccc1)CN1CCC(Nc2cc(=O)oc3ccc(Cl)cc23)CC1` [III-18, 6-Chloro-4-[1-(2-methyl-3-phenyl-allyl)-piperidin-4-ylamino]-chromen-2-one], not below 50%. On the same count and under the same terms, as for `COc1ccccc1/C=C/CN1CCC(Nc2cc(=O)oc3ccc(C)cc23)CC1` [III-19, 4-{1-[3-(2-Methoxy-phenyl)-allyl]-piperidin-4-ylamino}-6-methyl-chromen-2-one], the figure is not below 50%. Turning to `O=c1cc(NC2CCN(C/C=C/c3ccccc3)CC2)c2ccccc2o1` [III-24, 4-[1-(3-Phenyl-allyl)-piperidin-4-ylamino]-chromen-2-one], the inhibition at 10 µM was not below 50%. The same measure, in the same setting: to `O=c1cc(NC2CCN(C/C=C/c3ccccc3F)CC2)c2cc(Cl)ccc2o1` [III-56, 6-Chloro-4-{1-[3-(2-fluoro-phenyl)-allyl]-piperidin-4-ylamino}-chromen-2-one] belongs not below 50%; to `N#Cc1ccc2oc(=O)cc(NC3CCN(C/C=C/c4ccccc4)CC3)c2c1` [III-59, 2-Oxo-4-[1-(3-phenyl-allyl)-piperidin-4-ylamino]-2H-chromene-6-carbonitrile], not below 50%.

A further test has as its target MCH-R1 (Mus musculus, UniProt Q8JZL2). The test can be described thus: MCH-R1 antagonist activity, comparison of stereoisomers (assay not specified). The conditions noted are these: qualitative comparison of isomers.
As for `C[C@H](c1ccc2ccccc2c1)N1CCC(Nc2cc(=O)oc3ccc(Cl)cc23)CC1` [II-119, (R)-6-Chloro-4-[1-(1-naphthalen-2-yl-ethyl)-piperdin-4-ylamino]-chromen-2-one], the “MCH-R1 antagonist activity, relative between stereoisomers” value was “more active than II-120”. Same read-out and setting: as for `O=c1cc(NC2CC3CCC(C2)N3Cc2ccc3c(c2)OCO3)c2cc(Cl)ccc2o1` (stereo not drawn) [II-122, (exo)-4-(8-Benzo[1,3]dioxol-5-ylmethyl-8-aza-bicyclo[3.2.1]oct-3-ylamino)-6-chloro-chromen-2-one], the entry is “more active than the endo isomer II-123”.
